Source: PMC3435281 (PLoS ONE, 2012)

Key:
[1] = system: murine AHR^d; assay: EROD activity in AHR^d-15 cells (rat hepatoma BP8 stably transfected with AHR^d); settings: 5L versus AHR^d-15 cells, 40 hours
Description: (§1) The 100 “hit compounds” from the primary screen were subsequently screened for their capacity to activate the low-affinity murine AHR^d receptor isoform using the activity of the endogenous Cyp1a1 gene as a readout. To this end, we established a hepatoma cell line that expresses the AHR^d receptor isoform derived from the DBA/2J mouse. An AHR^d-expressing cell line was generated by stably transfecting the AHR^d cDNA into the rat hepatoma AHR-deficient cell line, BP8 [15]. After stable selection with G418, a subclone (AHR^d-15) was analyzed for receptor expression and function. […] To confirm that the AHR^d-15 clone expressed a functional low affinity AHR^d isoform, we examined the receptor-mediated response to the prototype agonists, TCDD and β-naphthoflavone (BNF).
(§2) To test the ability of the 100 AHR inducers to activate the AHR^d-15 cells, they were treated with each of the compounds at the dose of 1 µM, for 36 hours in 96-well plates.
(§3) Figure 3 In Vitro dose response curves. A. Rat hepatoma cell lines bearing the murine AHR^d (AHR^d-15) or the rat AHR^b (5L) were incubated with increasing doses of TCDD in 96-well plates. After 40 hours, EROD activity was performed from whole cell lysate. (n = 3). […] (n = 3). C. Same assay as in A, with increasing doses of BNF. (n = 2). […] Following 48 hours, hepatic microsomal proteins were isolated and used for the assessment of EROD activity. Animals were treated in groups of 4. Error bars: S.D.
(§4) The open reading frame of the AHR^d gene (PL2047) was amplified by PCR using oligos OL5127 (5′-[…]-3′) and OL5128 (5′-[…]-3′). The product was ligated into the pTARGET™ mammalian expression vector (Promega, Madison, WI). The resulting plasmid was transfected into the AHR-deficient cell line, BP8 [15], using Effectene transfection reagent (Qiagen Inc., Valencia, CA). Stable integrants were selected with 6 mg/ml of G418 for 2 weeks, beginning at 48-hours post-transfection. Clones derived from single cells were screened for their response to nanomolar doses of dioxin or micromolar doses of BNF, as measured by ethoxyresorufin O-deethylase (EROD) activity. […] The validated cell line used in these studies was designated line AHR^d-15.
(§5) High-throughput analysis of EROD activity was assayed by adapting a protocol that was described elsewhere, [63]. Briefly, cells were seeded into 96-well plates at ∼ 60% density and treated with the test compounds for 36 hours. The cells were washed with PBS and lysed with 30 µL water and a cycle of freeze-thaw. To each well, 150 µL of 50 mM Hepes buffer containing 26.7 µM dicumarol and 13.3 µM ethoxyresorufin were added. The samples were incubated at 30°C for 20 minutes, and 50 µL of 0.5 mM β-NADPH were added to initiate the reaction. Fluorescence of the resorufin product was detected using the 544 nm excitation and 590 nm emission wavelength filter set.

[2] = biological target: AHR A375V (AHR^d type) (Mus musculus, UniProt P30561, A375V); assay: DRE-luciferase in COS-1 cells transfected with mAHR-A375V
Method: Figure 4 Splenocytes from wild-type and AHR^d mice analyzed by qPCR for CYP1A1. […] After 4 hours they were analyzed by qPCR for CYP1A1 analysis. The curves are normalized from 0 to 100% response. […] Cos-1 cells were transfected with an AHR containing the same point mutation (valine for alanine) thought to be responsible for the low affinity of the AHR^d isoform compared to AHR^b, and compared to the wild-type AHR response. These cells also harbor a luciferase gene next to the DRE. C. Cos-1 cells were exposed to TCDD. […] The graphs represent normalized data from 0 response to 100% response. They are representative of 2 independent experiments.
These cells also harbor a luciferase gene next to the DRE. […] The data in this figure is normalized from 0 to 100% response.
After 4 hours of treatment, cells were assayed with dual luciferase® reporter assay system (Promega, Madison, WI). The expressed luciferase activity was measured by MicroLumat Plus luminometer (Berthold Technologies, Hartfordshire, UK).

[3] = biological target: T1, murine AHR^d (Mus musculus, UniProt P30561, A375V); assay: EROD activity in AHR^d-15 cells (rat hepatoma BP8 stably transfected with AHR^d)
T1 sequence (P30561 10-848 A375V): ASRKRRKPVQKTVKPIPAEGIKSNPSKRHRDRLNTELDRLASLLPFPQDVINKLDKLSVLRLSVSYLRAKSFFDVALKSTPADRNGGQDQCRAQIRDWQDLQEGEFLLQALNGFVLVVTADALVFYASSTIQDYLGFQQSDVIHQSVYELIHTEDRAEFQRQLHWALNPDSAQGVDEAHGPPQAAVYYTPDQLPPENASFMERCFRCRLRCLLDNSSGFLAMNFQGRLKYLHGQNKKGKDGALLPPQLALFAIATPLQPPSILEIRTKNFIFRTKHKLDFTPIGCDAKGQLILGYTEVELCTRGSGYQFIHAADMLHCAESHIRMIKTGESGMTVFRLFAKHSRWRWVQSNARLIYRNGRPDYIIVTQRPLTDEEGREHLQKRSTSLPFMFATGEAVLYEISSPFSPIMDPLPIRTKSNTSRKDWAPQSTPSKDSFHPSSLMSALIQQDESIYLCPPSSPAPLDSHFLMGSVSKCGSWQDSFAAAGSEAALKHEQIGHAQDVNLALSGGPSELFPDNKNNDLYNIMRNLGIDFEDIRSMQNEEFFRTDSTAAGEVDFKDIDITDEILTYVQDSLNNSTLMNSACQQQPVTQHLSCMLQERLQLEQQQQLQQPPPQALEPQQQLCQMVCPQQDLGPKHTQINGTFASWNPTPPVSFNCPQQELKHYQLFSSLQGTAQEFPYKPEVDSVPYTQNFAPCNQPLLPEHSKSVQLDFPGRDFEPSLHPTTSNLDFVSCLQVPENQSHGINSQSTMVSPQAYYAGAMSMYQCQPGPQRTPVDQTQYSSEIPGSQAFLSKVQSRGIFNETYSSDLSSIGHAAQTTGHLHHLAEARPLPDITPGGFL
Description: as §1, §2, §3, §4, §5

## Cc1cc(C)c(C=C2C(=O)Nc3ccccc32)[nH]1 [SU5416, 3-(3,5-dimethyl-1H-pyrrol-2-ylmethylene)-1,3-dihydro-indole-2-one]
[1]
  cytochrome P450 induction (EROD), comparison of the two cell lines: equal potency

## Clc1cc2c(cc1Cl)Oc1cc(Cl)c(Cl)cc1O2 [TCDD, 2,3,7,8-tetrachlorodibenzo-p-dioxin]
[2]
  EC50: 2.47 nM
[3]
  EC50: ~30 nM
[3]; AHR^d-15 cells, positive control 2 nM, 36 hours
  induction of AHR^d-mediated EROD activity: greater than 5 fold
